The text below walks through data of patent publication US10144715B2, “Piperazine derivatives as liver X receptor modulators” (priority 2014, dated 2018).

Structures are written as SMILES. Where two headings read alike, the source gives them in different places. Where only a bound is given, the exact number is not on record here.

Assay [1] concerns the target T1, LXR α LBD protein (Homo sapiens (Human), UniProt Q13133). As to the kind of experiment: LXR α radioligand binding assay (SPA, competition with [3H]TO901317). To be noted: read-out: LXRα Binding Ki.
Assay [2] deals with T2, Gal4 DNA binding domain fused to the LBD of LXRβ in HEK293 cells (Homo sapiens (Human), UniProt P55055). The experiment in a line: cell-based. Format: cell-based.
T2 sequence (P55055 222-460 limits assumed): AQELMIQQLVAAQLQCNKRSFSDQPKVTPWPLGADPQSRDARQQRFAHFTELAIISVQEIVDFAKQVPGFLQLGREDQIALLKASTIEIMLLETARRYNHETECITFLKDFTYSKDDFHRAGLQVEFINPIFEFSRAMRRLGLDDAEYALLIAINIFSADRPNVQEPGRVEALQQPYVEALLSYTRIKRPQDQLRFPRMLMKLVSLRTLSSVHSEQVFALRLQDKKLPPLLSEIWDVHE
In assay [3] the target is T2, Gal4 DNA binding domain fused to the LBD of LXRβ in HEK293 cells. As to the kind of experiment: cell-based.
Assay [4] deals with T3, LXR β LBD protein (Homo sapiens (Human), UniProt P55055). As to the kind of experiment: biochemical. It counts as binding. To be noted: read-out: LXRβ Binding Ki.
Target sequence in this assay (P55055 222-460 limits assumed): as above
In assay [5] the target is T4, Gal4 DNA binding domain fused to the LBD of LXRα in HEK293 cells (Homo sapiens (Human), UniProt Q13133). The experiment in a line: LXR luciferase transcriptional reporter gene assay, agonist mode, LXRα. Format: cell-based. To be noted: for EC50: read-out: Cell LXRα EC50. Background: Reporter assays use an easily measured gene product as a stand-in for the process of interest.
T4 sequence (Q13133 209-447): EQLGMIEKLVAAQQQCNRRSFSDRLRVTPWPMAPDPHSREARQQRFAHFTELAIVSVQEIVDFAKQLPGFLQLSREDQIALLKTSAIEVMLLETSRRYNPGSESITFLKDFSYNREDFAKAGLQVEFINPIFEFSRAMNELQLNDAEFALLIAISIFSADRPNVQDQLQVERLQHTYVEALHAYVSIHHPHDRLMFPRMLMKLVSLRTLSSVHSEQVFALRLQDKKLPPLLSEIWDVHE

Assay [6] deals with T4, Gal4 DNA binding domain fused to the LBD of LXRα in HEK293 cells. As to the kind of experiment: LXR luciferase transcriptional reporter gene assay, antagonist mode (200 nM T0901317), LXRα. It counts as cell-based. To be noted: for IC50: read-out: Cell LXRα IC50.
Assay [7] addresses T1, LXR α LBD protein. As to the kind of experiment: Human LXRα coactivator recruitment FRET assay, agonist mode. It counts as biochemical. To be noted: agonist mode. The gist of the method:
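Time-resolved FRET (delay 100 µs, window 200 µs) after 2 h rt incubation of compound with 10 nM (2×) GST-tagged LXRα or LXRβ LBD plus 200 nM fluorescein-SRC2-3 and 20 nM Tb-anti-GST (4×). Percent control vs concentration fit to four-parameter model; EC50 at inflection.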

Assay [8] deals with T3, LXR β LBD protein. As to the kind of experiment: biochemical. Format: biochemical.
Target sequence in this assay (P55055 222-460): as the sequence (P55055 222-460 limits assumed) above
Where [9] appears, read: antagonist mode, 200 nM T0901317, HEK293 reporter gene assay.

T1 sequence (Q13133 209-447): as the sequence (Q13133 209-447) above

For `CC(C)[C@@H]1CN(c2ccc(F)c(S(C)(=O)=O)c2)CCN1c1ncc(CNS(C)(=O)=O)c(C(F)(F)F)n1` [15-7, (R)-N-((2-(4-(4-fluoro-3-(methylsulfonyl)phenyl)-2-isopropylpiperazin-1-yl)-4-(trifluoromethyl)pyrimidin-5-yl)methyl)methanesulfonamide], the results for the Ki in assay [1] and in assay [4] were 512 nM and 40 nM, respectively. In assay [2], the IC50 worked out at 1770 nM. Further, the “Cell LXRβ efficacy” value was 1773 (113) % in assay [2] (setting [9]) and 198 (18) % in assay [3] (agonist mode). In addition, the figures for the concentration giving a half-maximal response (EC50) in assay [3] and in assay [5] were 198 nM and 2320 nM, respectively. Also, the “Cell LXRα efficacy” value in assay [5] is reported as 2315 (23) %.

`CC(C)[C@@H]1CN(c2ccc(F)c(S(C)(=O)=O)c2)CCN1c1ncc(CN2CC(O)C2)c(C(F)(F)F)n1` [15-4, (R)-1-((2-(4-(4-fluoro-3-(methylsulfonyl)phenyl)-2-isopropylpiperazin-1-yl)-4-(trifluoromethyl)pyrimidin-5-yl)methyl)azetidin-3-ol] displayed an IC50 in assay [2] of 1440 nM. In addition, the “Cell LXRβ efficacy” value in assay [2] (setting [9]) is 1438 (104) %; in assay [3] (agonist mode) it was 182 (13) %. In addition, the EC50 in assay [3] was 182 nM; in assay [5] (agonist mode), 2840 nM. Further, in assay [4], the Ki is 100 nM. Further, in assay [5], the “Cell LXRα efficacy” value is given as 2838 (20) %.

Consider `CC(C)[C@@H]1CN(c2ccc(F)c(S(C)(=O)=O)c2)CCN1c1ncc(CN2CCOCC2)c(C(F)(F)F)n1` [Cpd No 15-5, (R)-4-((2-(4-(4-fluoro-3-(methylsulfonyl)phenyl)-2-isopropylpiperazin-1-yl)-4-(trifluoromethyl)pyrimidin-5-yl)methyl)morpholine], for which the results for the IC50 in assay [6] (setting [9]) and in assay [2] were 1160 nM and 221 nM, respectively. Moreover, the “Cell LXRβ efficacy” value is reported as 221 (105) % in assay [2] (setting [9]) and 36 (3) % in assay [3] (agonist mode). Moreover, the EC50 amounted to 36 nM in assay [3] and 2590 nM in assay [5] (agonist mode). Moreover, the Ki in assay [4] came to 36 nM. The “Cell LXRα efficacy” value in assay [5] is listed as 2592 (12) %.

Regarding `COCCN(C)C(=O)c1cnc(N2CCN(c3ccc(F)c(S(C)(=O)=O)c3)C[C@H]2C(C)C)nc1C(F)(F)F` [17-12, (R)-2-(4-(4-fluoro-3-(methylsulfonyl)phenyl)-2-isopropylpiperazin-1-yl)-N-(2-methoxyethyl)-N-methyl-4-(trifluoromethyl)pyrimidine-5-carboxamide], the IC50 in assay [6] amounted to 1140 nM; in assay [2], 295 nM. In addition, the EC50 in assay [3] and in assay [5] was over 20000 nM each time. Also, in assay [4], the inhibition constant Ki was determined as 210 nM.

Consider `CC1(C)CCC(CN2CCN(c3cccc(S(C)(=O)=O)c3)C[C@@H]2c2ccccc2)CC1` [Cpd No 48-4, (S)-1-((4,4-dimethylcyclohexyl)methyl)-4-(3-(methylsulfonyl)phenyl)-2-phenylpiperazine], for which the Ki in assay [1] is 39 nM. In assay [6], the “Cell LXRα efficacy” value is recorded as 6447 (79) % and the IC50 is 6450 nM. In assay [7], the EC50 stood at 301 nM and the “FRET LXRα efficacy” value was found to be 39%. Further, in assay [5], the “Cell LXRα efficacy” value was 279 (61) % and the EC50 came to 279 nM.

Regarding `CC(C)[C@@H]1CN(c2ccc(F)c(S(C)(=O)=O)c2)CCN1c1ncc(C(=O)N2CCOCC2)c(C(F)(F)F)n1` [17-8, (R)-(2-(4-(4-fluoro-3-(methylsulfonyl)phenyl)-2-isopropylpiperazin-1-yl)-4-(trifluoromethyl)pyrimidin-5-yl)(morpholino)methanone], the results for the IC50 in assay [6] (setting [9]) and in assay [2] were 2280 nM and 538 nM, respectively. Besides, in assay [2] (setting [9]), the “Cell LXRβ efficacy” value is recorded as 538 (91) %. The EC50 in assay [3] and in assay [5] (agonist mode) was over 20000 nM each time. Besides, the inhibition constant (Ki) in assay [4] came out at 311 nM.

In assay [2], `CC(C)[C@@H]1CN(c2ccc(F)c(S(C)(=O)=O)c2)CCN1c1ncc(CN(C)C)c(C(F)(F)F)n1` [15-3, (R)-1-(2-(4-(4-fluoro-3-(methylsulfonyl)phenyl)-2-isopropylpiperazin-1-yl)-4-(trifluoromethyl)pyrimidin-5-yl)-N,N-dimethylmethanamine] yielded an IC50 of 900 nM. The “Cell LXRβ efficacy” value in assay [2] (setting [9]) is recorded as 900 (93) %; in assay [3] (agonist mode), 74 (17) %. Also, the EC50 in assay [3] amounted to 74 nM; in assay [5] (agonist mode) it was 1140 nM. The Ki in assay [4] was determined as 47 nM. The “Cell LXRα efficacy” value in assay [5] was 1144 (25) %.

Turning to `CC(C)[C@@H]1CN(c2cc(F)c(CO)c(S(C)(=O)=O)c2)CCN1c1ncc(C(N)=O)c(C(F)(F)F)n1` [Cpd No 17-28, (R)-2-(4-(3-fluoro-4-(hydroxymethyl)-5-(methylsulfonyl)phenyl)-2-isopropylpiperazin-1-yl)-4-(trifluoromethyl)pyrimidine-5-carboxamide], the IC50 in assay [6] (setting [9]) was 2550 nM; in assay [2] it was 182 nM. In addition, the “Cell LXRβ efficacy” value in assay [2] (setting [9]) is 182 (98) %; in assay [3] (agonist mode) it was 20 (9) %. For the same molecule, the EC50 in assay [3] came to 20 nM; in assay [5] (agonist mode), 913 nM. Besides, the “Cell LXRα efficacy” value in assay [5] is reported as 913 (9) %.

As to `CC(C)[C@@H]1CN(c2ccc(CO)c(S(C)(=O)=O)c2)CCN1c1ncc(C(N)=O)c(C(F)(F)F)n1` [Cpd No 17-25, (R)-2-(4-(4-(hydroxymethyl)-3-(methylsulfonyl)phenyl)-2-isopropylpiperazin-1-yl)-4-(trifluoromethyl)pyrimidine-5-carboxamide], the “Cell LXRα efficacy” value in assay [6] was 3652 (98) %; in assay [5], 1127 (18) %. For the same molecule, the IC50 in assay [6] (setting [9]) turned out to be 3650 nM; in assay [2], 359 nM. The “Cell LXRβ efficacy” value was 359 (99) % in assay [2] (setting [9]) and 46 (13) % in assay [3] (agonist mode). For the same molecule, the EC50 was 46 nM in assay [3] and 1130 nM in assay [5] (agonist mode).

As to `CC(C)(O)[C@@H]1CN(c2cccc(S(C)(=O)=O)c2)CCN1c1nccc(C(F)(F)F)n1` [7-24, (S)-2-(4-(3-(methylsulfonyl)phenyl)-1-(4-(trifluoromethyl)pyrimidin-2-yl)piperazin-2-yl)propan-2-ol], the figures for the Ki in assay [1] and in assay [4] were 1030 nM and 43 nM, respectively. Besides, the “Cell LXRβ efficacy” value in assay [2] is 9 (64) %; in assay [3], 275 (37) %. The molecule further yielded an IC50 in assay [2] of 9 nM. Also, the EC50 amounted to 275 nM in assay [3], 457 nM in assay [7], 14 nM in assay [8] (read-out: FRET LXRβ EC50) and 1590 nM in assay [5]. Also, the “FRET LXRα efficacy” value in assay [7] is listed as 83%. In addition, the “FRET LXRβ efficacy” value in assay [8] is 14 (74) %. Also, the “Cell LXRα efficacy” value in assay [5] is 1586 (50) %.

Consider `CCOC(=O)CCN(C)C(=O)c1cnc(N2CCN(c3ccc(F)c(S(C)(=O)=O)c3)C[C@H]2C(C)C)nc1C(F)(F)F` [17-18, ethyl (R)-3-(2-(4-(4-fluoro-3-(methylsulfonyl)phenyl)-2-isopropylpiperazin-1-yl)-N-methyl-4-(trifluoromethyl)pyrimidine-5-carboxamido)propanoate], for which, in assay [6], the “Cell LXRα efficacy” value is reported as 1159 (92) %. Moreover, the half-maximal inhibitory concentration (IC50) in assay [6] (setting [9]) amounted to 1160 nM; in assay [2], 186 nM. For the same molecule, the “Cell LXRβ efficacy” value in assay [2] is on record as 186 (98) %. Further, the concentration giving a half-maximal response (EC50) in assay [3] and in assay [5] (agonist mode) was over 20000 nM each time. Moreover, the Ki in assay [4] turned out to be 129 nM.

Turning to `CC(C)[C@@H]1CN(c2ccc(F)c(S(C)(=O)=O)c2)CCN1c1ncc(C(=O)N(C)C)c(C(F)(F)F)n1` [Cpd No 17-1, (R)-2-(4-(4-fluoro-3-(methylsulfonyl)phenyl)-2-isopropylpiperazin-1-yl)-N,N-dimethyl-4-(trifluoromethyl)pyrimidine-5-carboxamide], in assay [2], the “Cell LXRβ efficacy” value was 667 (84) % and the IC50 is 667 nM. Moreover, in assay [3], the “Cell LXRβ efficacy” value was 244 (8) % and the midpoint of the response, the EC50, lay at 244 nM. Further, the Ki in assay [4] came out at 123 nM.

As to `CC(C)[C@@H]1CN(c2ccc(F)c(S(C)(=O)=O)c2)CCN1c1nccc(OCC(F)(F)F)n1` [44-3, (R)-2-(4-(4-fluoro-3-(methylsulfonyl)phenyl)-2-isopropylpiperazin-1-yl)-4-(2,2,2-trifluoroethoxy)pyrimidine], in assay [2], the “Cell LXRβ efficacy” value is 91 (93) % and the 50% inhibitory concentration (IC50) stood at 91 nM. The EC50 in assay [3] is over 20000 nM. Further, in assay [4], the Ki came out at 67 nM.

As to `CS(=O)(=O)c1cccc(N2CCN(C[C@H]3CC[C@@H](C(F)F)CC3)[C@@H](c3ccccc3)C2)c1` (single isomer, unassigned) [Cpd No 48-17], the Ki in assay [1] was determined as 60 nM. The IC50 in assay [6] (setting [9]) was 1350 nM. Also, in assay [7], the EC50 was determined as 287 nM and the “FRET LXRα efficacy” value was 36%. The “Cell LXRα efficacy” value in assay [5] is on record as 127 (39) %. Also, the EC50 in assay [5] (agonist mode) came out at 127 nM.

One may read the Ki as the equilibrium dissociation constant of an inhibitor or competing ligand from its target. The term IC50 denotes the point on the concentration scale where inhibition reaches its midpoint. One may read the EC50 as the midpoint of the concentration-response curve.
